Reference: ChEMBL document CHEMBL1201862, “PubChem BioAssay data set” (2004)
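Growth conditions: 96-well plates. Treatment: test compound, 48 hours, 5 concentrations. Analysis: linear interpolation between bracketing concentrations; unreached endpoints set to highest concentration. GI50: concentration for 50% inhibition of growth.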 Activity calls are given as the source filed them. No stated cut-off is given here; in the data, active = GI50 up to about 1.1 µM and inactive = higher. Starred links: 1 amine or outer side, 2 acyl side, 3 side chain; linkers in the order of their positions; H or OH if unused. Positions of bridges follow the written chain, without caps; N, C: chain ends. Non-standard residues stand in square brackets, D forms with d. Residues, ends and D or L forms follow the SMILES beside them. Chains are numbered I, II in the order given. ξ: configuration not given here. X42 = N=C(N)NCCC[C@H](NC(=N)CCCCCCC(=N)N[C@@H](CCCNC(=N)N)C(=O)[*:2])C(=O)[*:1]; Oic(3aξ,7aξ) = O=C(O)[C@@H]1CC2CCCCC2N1; Igl = N[C@H](C(=O)O)C1Cc2ccccc2C1; Hyp = O=C(O)[C@@H]1C[C@@H](O)CN1

How the values were obtained:
Assay in all cases: DTP human tumour cell line panel, 48 h
[1] = tested on: K562
[2] = tested on: SN12C
[3] = tested on: OVCAR-8
[4] = tested on: SNB-19
[5] = tested on: NCI-H23
[6] = tested on: SK-MEL-5
[7] = tested on: SR
[8] = tested on: Malme-3M
[9] = tested on: RXF 393
[10] = tested on: CCRF-CEM
[11] = tested on: HL-60
[12] = tested on: IGROV-1
[13] = tested on: 786-0
[14] = tested on: NCI/ADR-RES
[15] = tested on: UACC-62
[16] = tested on: RPMI-8226
[17] = tested on: OVCAR-3
[18] = tested on: HOP-62
[19] = tested on: SNB-75
[20] = tested on: SF-268

Structure (SMILES) | GI50 [1] | GI50 [2] | GI50 [3] | GI50 [4] | GI50 [5] | GI50 [6] | GI50 [7] | GI50 [8] | GI50 [9] | GI50 [10] | GI50 [11] | GI50 [12] | GI50 [13] | GI50 [14] | GI50 [15] | GI50 [16] | GI50 [17] | GI50 [18] | GI50 [19] | GI50 [20]
Cc1ccc(S(=O)(=O)OCCC2CN(C(=O)OCc3ccccc3)C(C)(C)O2)cc1 (configuration not stated) | 8.63 µM (inactive) | > 100 µM (inactive) | 4.2 µM (inactive) | 3.83 µM (inactive) | 2.96 µM (inactive) | 2.72 µM (inactive) | 4.47 µM (inactive) | 8.2 µM (inactive) | 6.4 µM (inactive) | 14.4 µM (inactive) | 5.24 µM (inactive) | 7.08 µM (inactive) | 11.6 µM (inactive) | 2.4 µM (inactive) | 10.2 µM (inactive) | 3.92 µM (inactive) | 39.6 µM (inactive) | – | – | –
COC(=O)[C@]12CCC(=O)N1[C@H](C(=O)O)Cc1c2[nH]c2ccccc12 | > 100 µM (inactive) | > 100 µM (inactive) | > 100 µM (inactive) | > 100 µM (inactive) | > 100 µM (inactive) | > 100 µM (inactive) | > 100 µM (inactive) | > 100 µM (inactive) | > 100 µM (inactive) | > 100 µM (inactive) | – | > 100 µM (inactive) | > 100 µM (inactive) | > 100 µM (inactive) | > 100 µM (inactive) | – | > 100 µM (inactive) | > 100 µM (inactive) | > 100 µM (inactive) | > 100 µM (inactive)
CCNC(=S)N/N=C(\C)c1cccc(C)n1 | 1.78 µM (inactive) | 11.8 µM (inactive) | 3.44 µM (inactive) | 30.3 µM (inactive) | 23 µM (inactive) | 4.52 µM (inactive) | > 100 µM (inactive) | 2.39 µM (inactive) | 45.3 µM (inactive) | 0.351 µM (active) | 3.47 µM (inactive) | 4.36 µM (inactive) | 12.8 µM (inactive) | 8.45 µM (inactive) | 15.4 µM (inactive) | – | 0.299 µM (active) | 29.7 µM (inactive) | 75.2 µM (inactive) | 2.4 µM (inactive)
Cc1ccc(C)c(COCCOCn2cc(Br)c(N)nc2=O)c1 | > 100 µM (inactive) | > 100 µM (inactive) | > 100 µM (inactive) | > 100 µM (inactive) | > 100 µM (inactive) | – | > 100 µM (inactive) | > 100 µM (inactive) | > 100 µM (inactive) | > 100 µM (inactive) | 14 µM (inactive) | > 100 µM (inactive) | > 100 µM (inactive) | > 100 µM (inactive) | > 100 µM (inactive) | – | > 100 µM (inactive) | 57.3 µM (inactive) | > 100 µM (inactive) | > 100 µM (inactive)
O=C(O)/C=c1/c2ccccc2n2nc3ccccc3c12 | 36.6 µM (inactive) | 26.7 µM (inactive) | 21.5 µM (inactive) | 31.8 µM (inactive) | 27.7 µM (inactive) | 14.2 µM (inactive) | 16.6 µM (inactive) | 25.2 µM (inactive) | 49.1 µM (inactive) | 33.2 µM (inactive) | 34.1 µM (inactive) | 31.4 µM (inactive) | 38.6 µM (inactive) | 29.5 µM (inactive) | 17.5 µM (inactive) | 25.8 µM (inactive) | 33.5 µM (inactive) | 31.6 µM (inactive) | – | 38.4 µM (inactive)
C=C(C)CCC(O)[C@](C)(O)[C@H]1[C@H](O)C[C@@]2(C)[C@@H]3CCc4c(cc(OC5OC(CO)C(O)C(O)C5O)c(O)c4C)C3(C)C(=O)C[C@]12C (some centres not stated) | > 100 µM (inactive) | > 100 µM (inactive) | > 100 µM (inactive) | > 100 µM (inactive) | > 100 µM (inactive) | > 10 µM (inactive) | > 100 µM (inactive) | > 100 µM (inactive) | > 100 µM (inactive) | > 100 µM (inactive) | – | > 100 µM (inactive) | > 100 µM (inactive) | > 100 µM (inactive) | > 100 µM (inactive) | – | > 100 µM (inactive) | > 100 µM (inactive) | > 100 µM (inactive) | > 100 µM (inactive)
N=C(N)NCCC[C@H](NC(=O)[C@@H]1CC2CCCCC2N1C(=O)[C@@H](NC(=O)[C@H](CO)NC(=O)[C@@H](NC(=O)CNC(=O)[C@@H]1CCCN1C(=O)[C@H](CCCNC(=N)N)NC(=O)[C@H](CCCNC(=N)N)NC(=N)CCCCCCC(=N)N[C@@H](CCCNC(=N)N)C(=O)N[C@@H](CCCNC(=N)N)C(=O)N1CCC[C@H]1C(=O)N1C[C@H](O)C[C@H]1C(=O)NCC(=O)N[C@H](C(=O)N[C@@H](CO)C(=O)N[C@H](C(=O)N1C2CCCCC2C[C@H]1C(=O)N[C@@H](CCCNC(=N)N)C(=O)O)C1Cc2ccccc2C1)C1Cc2ccccc2C1)C1Cc2ccccc2C1)C1Cc2ccccc2C1)C(=O)O (some centres not stated) (I: RP[Hyp]G[Igl]S[Igl][Oic(3aξ,7aξ)]R-OH / II: RPG[Igl]S[Igl][Oic(3aξ,7aξ)]R-OH; linker I:N-II:N via X42) | 0.993 µM (active) | 2.07 µM (inactive) | – | 2.36 µM (inactive) | 1.92 µM (inactive) | 1.73 µM (inactive) | 0.169 µM (active) | 2.31 µM (inactive) | 1.34 µM (inactive) | 3.11 µM (inactive) | 0.15 µM (active) | 2.44 µM (inactive) | 2.99 µM (inactive) | 2.9 µM (inactive) | 1.83 µM (inactive) | 2.31 µM (inactive) | 1.79 µM (inactive) | 2.23 µM (inactive) | – | 1.92 µM (inactive)
